Experimental data published in US5419898A, “Antiallergic composition for ophthalmic or nasal use” (priority 1992, dated 1995).
Counter-ions that a name gives are not always drawn.

Tested on: histamine-induced conjunctivitis
Assay: Effect on rat histamine-induced conjunctivitis
Type: in vivo, Male Wistar rats
Conditions: 0.5 w/v % cetirizine hydrochloride; 3 μl per eye 40 and 20 minutes before histamine
Experimental: Male Wistar rats of about 100 g in weight were injected subconjunctivally each with 50 μl of 0.1 w/v % histamine at the upper eyelid. Each of the following test ophthalmic compositions in solution form was instilled into both eyes of the rats in the corresponding group at a dose of 3 μl for each eye 40 and 20 minutes before the histamine injection. The rats were sacrificed one hour after the histamine injection. The palpebral conjunctival edema weight was measured, and the edema inhibition rate was calculated using the edema weight of the physiological saline group as the maximal response.

O=C(O)COCCN1CCN(C(c2ccccc2)c2ccc(Cl)cc2)CC1 (stereo not shown) [cetirizine hydrochloride]
edema inhibition rate: about 88.8%
